The values that follow are results of earlier work, collected in patent US7976869B2, “Fenofibrate tablets” (Laboratoires Fournier S.A., priority 2001, dated 2011).

Read-outs that look alike come from different tables or passages of the source.

The conditions of this data set: conventional gelatin capsule form.

`CC(C)OC(=O)C(C)(C)Oc1ccc(C(=O)c2ccc(Cl)cc2)cc1` [Fenofibrate]: the bioavailability runs as follows: (after a meal) 89%; (on an empty stomach) 26%.
